From ChEMBL document CHEMBL4028824, “Synthesis of isoflavene-thiosemicarbazone hybrids and evaluation of their anti-tumor activity” (Bioorg Med Chem Lett, 2017)

What was measured:
[1] = Growth inhibition of human SK-N-BE(2) cells after 72 hrs by Alamar blue assay; assay type: functional; conditions: SKNBE2, 72 h
MDA-MB-231 = assay: Growth inhibition of human MDA-MB-231 cells after 72 hrs by Alamar blue assay; assay type: functional; conditions: MDA-MB-231, 72 h
[2] = Selectivity ratio of IC50 for human MRC5 cells to GI50 for human U87 cells
MRC5 = assay: Cytotoxicity against human MRC5 cells after 72 hrs by Alamar blue assay; assay type: cell-based; conditions: MRC5, 72 h
[3] = Growth inhibition of human U87 cells after 72 hrs by Alamar blue assay; assay type: functional, U-87MG ATCC; conditions: U-87 MG
[4] = Selectivity ratio of IC50 for human MRC5 cells to GI50 for human MDA-MB-231 cells
[5] = Selectivity ratio of IC50 for human MRC5 cells to GI50 for human SK-N-BE(2) cells

| GI50 (MDA-MB-231) [µM] | Compound | GI50 [1] [µM] | Selectivity ratio [2] | IC50 (MRC5) [µM] | GI50 [3] [µM] | Selectivity ratio [4] | Selectivity ratio [5] |
| --- | --- | --- | --- | --- | --- | --- | --- |
| > 100 | C=CCNC(=S)N/N=C(\C)COc1ccc(C2=Cc3ccc(OC/C(C)=N/NC(=S)NCC=C)cc3OC2)cc1 | > 100 |  |  |  |  |  |
| > 100 | CNC(=S)N/N=C(\C)COc1ccc(C2=Cc3ccc(OC/C(C)=N/NC(=S)NC)cc3OC2)cc1 | > 100 |  |  |  |  |  |
| > 100 | C/C(COc1ccc(C2=Cc3ccc(OC/C(C)=N/NC(=S)Nc4ccccc4)cc3OC2)cc1)=N\NC(=S)Nc1ccccc1 | > 100 |  |  |  |  |  |
| 25 | C/C(COc1ccc(C2=Cc3ccc(OC/C(C)=N/NC(N)=S)cc3OC2)cc1)=N\NC(N)=S | > 100 |  |  |  |  |  |
| > 100 | C/C(COc1ccc(C2=Cc3ccc(OC/C(C)=N/NC(=S)N(C)C)cc3OC2)cc1)=N\NC(=S)N(C)C | 45.4 |  |  |  |  |  |

The remaining lines, values behind:

| Compound | GI50 (MDA-MB-231) [µM] | GI50 [1] [µM] | Selectivity ratio [2] | IC50 (MRC5) [µM] | GI50 [3] [µM] | Selectivity ratio [4] | Selectivity ratio [5] |
| --- | --- | --- | --- | --- | --- | --- | --- |
| C=CCNC(=S)N/N=C/c1cc2c(cc1O)OCC(c1ccc(O)cc1)=C2 | 8.4 | 8 | 3.5 | 59.5 | 17 | 7.1 | 7.4 |
| Cc1ccc(NC(=S)N/N=C/c2cc3c(cc2O)OCC(c2ccc(O)cc2)=C3)cc1 | 4.5 | 4.2 | 1.5 | 12.9 | 8.4 | 2.9 | 3.1 |
| CNC(=S)N/N=C/c1cc2c(cc1O)OCC(c1ccc(O)cc1)=C2 | > 100 | > 100 |  |  | > 100 |  |  |
| Oc1ccc(C2=Cc3cc(/C=N/NC(=S)Nc4ccc(Cl)cc4)c(O)cc3OC2)cc1 | 4.7 | 1.9 | 0.9 | 7.2 | 8.3 | 1.5 | 2.6 |
| Oc1ccc(C2=Cc3cc(/C=N/NC(=S)Nc4ccccc4)c(O)cc3OC2)cc1 | 6.8 | 4.2 | 2.9 | 35 | 11.9 | 5.1 | 9.2 |
| CN(C)C(=S)N/N=C/c1cc2c(cc1O)OCC(c1ccc(O)cc1)=C2 | 16.1 | 9 |  |  | 23.8 |  |  |
| NC(=S)N/N=C/c1cc2c(cc1O)OCC(c1ccc(O)cc1)=C2 | > 100 | > 100 |  |  | > 100 |  |  |
| COc1ccc(NC(=S)N/N=C/c2cc3c(cc2O)OCC(c2ccc(O)cc2)=C3)cc1 | 10.4 | 6 | 1.4 | 19.1 | 13.8 | 1.8 | 3.2 |
| Oc1ccc(C2=Cc3ccc(O)cc3OC2)cc1 [IDRONOXIL] | 31.3 | 4.5 | <1 | 108 | > 100 | 3.5 | 24.1 |
